Experimental data published in US11166920B2, “Microfluidics device for fabrication of large, uniform, injectable hydrogel microparticles for cell encapsulation” (Auburn University, priority 2017, dated 2021).
Entries after “also recorded” stand apart in the source; their conditions may differ.

System: microsphere CMs
Test: Multielectrode array: drug response and exogenous pacing
Format: cell-based, human
Conditions: day 20 microsphere CMs; isoproterenol 1 μM, then propranolol 1 μM
Description: Day 20 and 50 dissociated microsphere CMs were seeded onto a fibronectin coated S2 type MEA200/30-Ti-gr (Multichannel Systems) and cultured for at least 24 h. Adhering microsphere CMs were perfused with Tyrode's solution, composed of 1.8 mM CaCl2), 5 mM glucose, 5 mM HEPES, 1 mM MgCl2, 5.4 mM KCl, 135 mM NaCl, and 0.33 mM NaH2PO4 at pH 7.4 and 37° C. Once stabilized, field potentials of spontaneous contractions were recorded at a sampling frequency of 10 kHz. Drug response of day 20 microsphere CMs was tested by adding the β-adrenergic agonist isoproterenol (1 μM) and antagonist propranolol (1 μM). Day 50 microsphere CMs were exogenously paced from 0.5-6.0 Hz.

| SMILES | Effect on contraction rate |
| --- | --- |
| CC(C)NCC(O)COc1cccc2ccccc12 (centres unmarked) [propranolol] | slowed down the rate of contraction; also recorded: reversed the initial increase in contraction rate |
| CC(C)NCC(O)c1ccc(O)c(O)c1 (centres unmarked) [isoproterenol] | increases the frequency of contraction; also recorded: increasing the contraction rate |
